Test results published in patent publication US6723364B1, “Fog treatment method using a liquid composition for treating fruits and vegetables and implementing device” (Xeda International, priority 1998, dated 2004).

Tested on: potato tubers
Assay: Sprouting-inhibiting treatment of potato tubers by thermal fogging
Assay type: in vivo
Conditions: after 5 months; cold room 8 to 9° C.; 45 g/tonne then 15 g/tonne every 20 days by thermal fogging
Procedure: The effectiveness of eugenol and of isoeugenol in the sprouting-inhibiting treatment of potato tubers was evaluated and compared with that of other terpenes.
The following compositions were used in the case of eucalyptol, eugenol, isoeugenol, limonene, safrole and terpineol:
60% by weight of terpene;
7% by weight of a nonionic emulsifier;
33% by weight of butyl acetate.
In the case of L-carvone, the following composition was employed:
30% by weight of L-carvone;
10% by weight of ethanol;
5% by weight of nonionic emulsifier;
35% by weight of propylene glycol.
Isopropyl chlorophenylcarbamate (CIPC) is a compound used in the art as sprouting inhibitor for potato tubers. Its activity was compared with that of eugenol and of isoeugenol.
The composition based on isopropyl chloro-phenylcarbamate has the following formulation: […]
20% by weight of isopropyl chlorophenyl-carbamate;
50% by weight of propylene glycol;
10% by weight of nonionic emulsifier;
Each of the compositions tested was applied by thermal fogging. The temperature at the outlet of the thermal fogging device was 240° C., except in the case of the compositions based on L-carvone and on CIPC, where it was 180° C.
The amount of composition which has to be applied is calculated in each case so as to obtain an equivalent concentration of active material on the potato tubers.
In this example, repeated applications were carried out by following the following protocol:
45 g/tonne of tubers at the beginning of storage;
15 g/tonne of tubers every 20 days; so that, after 6 months, 165 g of active principle have been applied per tonne of tubers.
During storage, the tubers were stored in a cold room at a temperature of 8 to 9° C.

| Compound | Loss in weight of the tubers [%] | Total weight of the sprouts >2 mm [g] | Tubers at the white point stage [%] | Tubers with sprouts 2 to 5 mm [%] | Tubers with sprouts <2 mm [%] | Tubers with sprouts >2 mm [%] | Tubers with sprouts >5 mm [%] | Unsprouted tubers [%] |
| --- | --- | --- | --- | --- | --- | --- | --- | --- |
| C=C(C)[C@H]1CC=C(C)CC1 [LIMONENE, limonene] | 4.5 | 283.8 | 1.2 | 8.7 | 1.5 | 96.8 | 88.1 | 0.5 |
| L-carvone | 3.3 | 42.0 | 8.7 | 28.8 | 32.3 | 55.0 | 26.2 | 4.0 |
